Test results reported in the supplement of paper PMC10307832.

Legend:
Test in all cases: relative viability (nuclei count vs DMSO), 5 days (fraction); higher = more cells survive
NCI-H322M = tested on: NCI-H322M
Procedure, shortened: (§1)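 After 5 days of treatment, lung cancer cells in 1536-well plates were fixed and stained in a single step (final 0.05% Triton X-100, 1% formaldehyde, 1 ug/ml Hoechst) and their nuclei counted on 4× images. Treatment had been applied by pin tool the day after seeding as one drug alone or as a fixed anchor-drug dose with five library-drug doses (not always all listed) in √10 steps. Relative viability is the nuclei count of treated wells divided by that of vehicle wells, and values are medians of duplicate plates.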

NCI-H1703 = tested on: NCI-H1703
Procedure, shortened: as §1

NCI-H647 = tested on: NCI-H647
Procedure, shortened: as §1

NCI-H2087 = tested on: NCI-H2087
Procedure, shortened: as §1

PC-14 = tested on: PC-14
Procedure, shortened: as §1

COR-L23 = tested on: COR-L23
Procedure, shortened: as §1

LCLC-97TM1 = tested on: LCLC-97TM1
Procedure, shortened: as §1

NCI-H460 = tested on: NCI-H460
Procedure, shortened: as §1

A-427 = tested on: A-427
Procedure, shortened: as §1

NCI-H3122 = tested on: NCI-H3122
Procedure, shortened: as §1

NCI-H2085 = tested on: NCI-H2085
Procedure, shortened: as §1

NCI-H1437 = tested on: NCI-H1437
Procedure, shortened: as §1

NCI-H1666 = tested on: NCI-H1666
Procedure, shortened: as §1

NCI-H661 = tested on: NCI-H661
Procedure, shortened: as §1

NCI-H1563 = tested on: NCI-H1563
Procedure, shortened: as §1

NCI-H1915 = tested on: NCI-H1915
Procedure, shortened: as §1

EKVX = tested on: EKVX
Procedure, shortened: as §1

A549 = tested on: A549
Procedure, shortened: as §1

NCI-H2126 = tested on: NCI-H2126
Procedure, shortened: as §1

ABC-1 = tested on: ABC-1
Procedure, shortened: as §1

NCI-H727 = tested on: NCI-H727
Procedure, shortened: as §1

LK-2 = tested on: LK-2
Procedure, shortened: as §1

LXF-289 = tested on: LXF-289
Procedure, shortened: as §1

LC-2-ad = tested on: LC-2-ad
Procedure, shortened: as §1

NCI-H1792 = tested on: NCI-H1792
Procedure, shortened: as §1

With `Nc1cccc2c1CN(C1CCC(=O)NC1=O)C2=O` (configuration not stated) [Lenalidomide] + C[C@]1(O)C[C@@H](c2nc(-c3ccc4ccc(-c5ccccc5)nc4c3)c3c(N)nccn32)C1 [Linsitinib] (partner 1 µM) the relative viability (NCI-H322M; first compound 0.253 µM) was 0.912, the relative viability (NCI-H322M; first compound 0.8 µM) was 1.06 and the relative viability (NCI-H322M; first compound 2.53 µM) was 0.856. For the same compound, the relative viability (NCI-H322M; first compound 8 µM) was 0.708, the relative viability (NCI-H1703; first compound 0.253 µM) was 0.566 and the relative viability (NCI-H1703; first compound 0.8 µM) was 1.01. For the same compound, the relative viability (NCI-H1703; first compound 2.53 µM) was 0.956, the relative viability (NCI-H1703; first compound 8 µM) was 0.431 and the relative viability (NCI-H647; first compound 0.253 µM) was 1.16. The relative viability (NCI-H647; first compound 0.8 µM) was 1.14, the relative viability (NCI-H647; first compound 2.53 µM) was 1.32 and the relative viability (NCI-H647; first compound 8 µM) was 0.932. The relative viability (NCI-H2087; first compound 0.253 µM) was 0.98, the relative viability (NCI-H2087; first compound 0.8 µM) was 0.919 and the relative viability (NCI-H2087; first compound 2.53 µM) was 0.915. The relative viability (NCI-H2087; first compound 8 µM) was 1.09, the relative viability (PC-14; first compound 0.253 µM) was 0.925 and the relative viability (PC-14; first compound 0.8 µM) was 0.988. The relative viability (PC-14; first compound 2.53 µM) was 0.978, the relative viability (PC-14; first compound 8 µM) was 0.969 and the relative viability (COR-L23; first compound 0.253 µM) was 0.991. It also gave a relative viability (COR-L23; first compound 0.8 µM) of 1.12, a relative viability (COR-L23; first compound 2.53 µM) of 1.01 and a relative viability (COR-L23; first compound 8 µM) of 0.906. For the same compound, the relative viability (LCLC-97TM1; first compound 0.8 µM) was 0.218, the relative viability (LCLC-97TM1; first compound 2.53 µM) was 0.157 and the relative viability (LCLC-97TM1; first compound 8 µM) was 0.137. The relative viability (NCI-H460; first compound 0.253 µM) was 0.777, the relative viability (NCI-H460; first compound 0.8 µM) was 0.821 and the relative viability (NCI-H460; first compound 2.53 µM) was 1.25. It also gave a relative viability (NCI-H460; first compound 8 µM) of 0.622, a relative viability (A-427; first compound 0.253 µM) of 1.12 and a relative viability (A-427; first compound 2.53 µM) of 1.11. For the same compound, the relative viability (A-427; first compound 8 µM) was 1.1, the relative viability (NCI-H3122; first compound 0.253 µM) was 1.02 and the relative viability (NCI-H3122; first compound 0.8 µM) was 1.04. It also gave a relative viability (NCI-H3122; first compound 2.53 µM) of 0.996, a relative viability (NCI-H3122; first compound 8 µM) of 0.998 and a relative viability (NCI-H2085; first compound 0.253 µM) of 0.876. For the same compound, the relative viability (NCI-H2085; first compound 0.8 µM) was 0.877, the relative viability (NCI-H2085; first compound 2.53 µM) was 1.03 and the relative viability (NCI-H2085; first compound 8 µM) was 0.933. It also gave a relative viability (NCI-H1437; first compound 0.253 µM) of 0.992, a relative viability (NCI-H1437; first compound 0.8 µM) of 1.15 and a relative viability (NCI-H1437; first compound 2.53 µM) of 1.21. The relative viability (NCI-H1437; first compound 8 µM) was 1.08, the relative viability (NCI-H1666; first compound 0.253 µM) was 0.921 and the relative viability (NCI-H1666; first compound 0.8 µM) was 0.652. The relative viability (NCI-H1666; first compound 2.53 µM) was 0.853, the relative viability (NCI-H1666; first compound 8 µM) was 0.833 and the relative viability (NCI-H661; first compound 0.253 µM) was 0.451. The relative viability (NCI-H661; first compound 0.8 µM) was 0.526, the relative viability (NCI-H661; first compound 2.53 µM) was 0.59 and the relative viability (NCI-H661; first compound 8 µM) was 0.539. The relative viability (NCI-H1563; first compound 0.253 µM) was 1.17, the relative viability (NCI-H1563; first compound 0.8 µM) was 1.16 and the relative viability (NCI-H1563; first compound 2.53 µM) was 1.08. The relative viability (NCI-H1563; first compound 8 µM) was 1.01, the relative viability (NCI-H1915; first compound 0.253 µM) was 1.08 and the relative viability (NCI-H1915; first compound 0.8 µM) was 1.12. The relative viability (NCI-H1915; first compound 2.53 µM) was 1.06, the relative viability (NCI-H1915; first compound 8 µM) was 1.11 and the relative viability (EKVX; first compound 0.253 µM) was 0.861. For the same compound, the relative viability (EKVX; first compound 0.8 µM) was 0.93, the relative viability (EKVX; first compound 2.53 µM) was 1.19 and the relative viability (EKVX; first compound 8 µM) was 0.792. It also gave a relative viability (A549; first compound 0.253 µM) of 0.539, a relative viability (A549; first compound 0.8 µM) of 0.573 and a relative viability (A549; first compound 2.53 µM) of 0.56. The relative viability (A549; first compound 8 µM) was 0.368, the relative viability (NCI-H2126; first compound 0.253 µM) was 0.692 and the relative viability (NCI-H2126; first compound 0.8 µM) was 0.681. It also gave a relative viability (NCI-H2126; first compound 2.53 µM) of 0.702, a relative viability (NCI-H2126; first compound 8 µM) of 0.486 and a relative viability (ABC-1; first compound 0.253 µM) of 0.589. It also gave a relative viability (ABC-1; first compound 0.8 µM) of 0.732, a relative viability (ABC-1; first compound 2.53 µM) of 0.71 and a relative viability (ABC-1; first compound 8 µM) of 0.85. For the same compound, the relative viability (NCI-H727; first compound 0.253 µM) was 0.311, the relative viability (NCI-H727; first compound 2.53 µM) was 0.308 and the relative viability (NCI-H727; first compound 8 µM) was 0.288. For the same compound, the relative viability (LK-2; first compound 0.253 µM) was 0.427, the relative viability (LK-2; first compound 0.8 µM) was 0.355 and the relative viability (LK-2; first compound 2.53 µM) was 0.428. The relative viability (LK-2; first compound 8 µM) was 0.451, the relative viability (LXF-289; first compound 0.253 µM) was 0.961 and the relative viability (LXF-289; first compound 0.8 µM) was 0.994. It also gave a relative viability (LXF-289; first compound 2.53 µM) of 1.01, a relative viability (LXF-289; first compound 8 µM) of 1.03 and a relative viability (LC-2-ad; first compound 0.253 µM) of 0.837. It also gave a relative viability (LC-2-ad; first compound 0.8 µM) of 0.926, a relative viability (LC-2-ad; first compound 2.53 µM) of 0.862 and a relative viability (LC-2-ad; first compound 8 µM) of 0.833. For the same compound, the relative viability (NCI-H1792; first compound 0.253 µM) was 0.53, the relative viability (NCI-H1792; first compound 0.8 µM) was 0.457 and the relative viability (NCI-H1792; first compound 2.53 µM) was 0.509. The relative viability (NCI-H1792; first compound 8 µM) was 0.402.
